Where two headings read alike, the source gives them in different places.
Experiments:
Type in all cases: in vivo
Phytophthora infestans = test: whole plant or invertebrate; conditions: Phytophthora infestans, 72 h, tomatoes, 3 days after inoculation; for pest or weed control at 0.4 ppm: 0.4 ppm a.i.; for pest or weed control at 0.125 ppm: 0.125 ppm a.i.; for pest or weed control at 0.5 ppm: 0.5 ppm a.i.
Sphaerotheca fuliginea = test: Sphaerotheca test (cucumbers)/protective; conditions: Podosphaera fuliginea, 168 h, 7 days after inoculation, read-out: Efficacy in % found
Method: Sphaerotheca Test (Cucumbers)/Protective
(§1) Solvent: • 24,5 parts by weight of acetone • 24,5 parts by weight of dimethylacetamide
(§2) Emulsifier: • 1 part by weight of alkylaryl polyglycol ether
(§3) To produce a suitable preparation of active compound, 1 part by weight of active compound is mixed with the stated amounts of solvent and emulsifier, and the concentrate is diluted with water to the desired concentration.
To test for protect activity, young plants are sprayed with the preparation of active compound at the stated rate of application. After the spray coating has dried on, the plants are inoculated with to an aqueous spore suspension of Sphaerotheca fuliginea. The plants are then placed in a greenhouse at approximately 23° C. and a relative atmospheric humidity of approximately 70%.
The test is evaluated 7 days after the inoculation. 0% means an efficacy which corresponds to that of the control, while an efficacy of 100% means that no disease is observed.

Botrytis cinerea = test: Botrytis test (beans)/protective; conditions: 48 h, 2 days after inoculation, read-out: Efficacy in % found
Method: Botrytis Test (Beans)/Protective
as §1, §2, §3
To test for protective activity, young plants are sprayed with the preparation of active compound. After the spray coating has dried on, 2 small pieces of agar covered with growth of Botrytis cinerea are placed on each leaf. The inoculated plants are placed in a darkened chamber at 20° C. and a relative atmospheric humidity of 100%.
2 days after the inoculation, the size of the lesions on the leaves is evaluated. 0% means an efficacy which corresponds to that of the control, while an efficacy of 100% means that no disease is observed.

Pythium ultimum = test: Pythium test (cotton)/seed treatment; conditions: Table 11, 0.1 g a.i./dt, emerged seedlings after 7 days
Method: Pythium Test (Cotton)/Seed Treatment
The test is performed under greenhouse conditions.
Cotton seeds, treated with the active compound or compound combinations, solved in N-methyl-2-pyrrolidon and diluted with water to the desired dosages, were sown in 6*6 cm pots containing 4 cm of a 1:1 mix of steamed field soil and sand.
Perlite was incubated with mycelium fragments of Pythium ultimum. 1 ml of infected perlite was scattered between the treated cotton seeds. Seeds were then covered by light expanded clay aggregate. Pots were incubated in the greenhouse 7 days at 20° C. and 80% relative humidity.
Assessment consisted of counting of emerged seedlings. 0% means an efficacy which to corresponds to that of the control, while an efficacy of 100% means that all seedlings have emerged.

[1] = read-out: Efficacy in % found, Table 3

C#CCCOC(=O)Nc1cccc(CO/N=C(/c2ccccc2)c2nnnn2C)n1 [Ex. A, but-3-yn-1-yl {6-[({[(Z)-(1-methyl-1H-tetrazol-5-yl)(phenyl)methylene]amino}oxy)methyl]pyridin-2-yl}carbamate]
pest or weed control at 0.1 ppm (Phytophthora infestans; read-out: Efficacy in % found, Table 1, 0.1 ppm a.i.): 7% | pest or weed control at 0.2 ppm (Phytophthora infestans; read-out: Efficacy in % found, Table 1, 0.2 ppm a.i.): 23% | pest or weed control at 0.4 ppm (Phytophthora infestans; read-out: Efficacy in % found, Table 1): 16% | pest or weed control at 0.125 ppm (Phytophthora infestans; read-out: Efficacy in % found, Table 2): 20% | pest or weed control at 0.125 ppm (Phytophthora infestans; [1]): 35% | pest or weed control at 0.5 ppm (Phytophthora infestans; [1]): 74% | pest or weed control at 0.4 ppm (Phytophthora infestans; read-out: Efficacy in % found, Table 4): 55% | pest or weed control at 0.5 ppm (Phytophthora infestans; read-out: Efficacy in % found, Table 5): 70% | pest or weed control at 0.125 ppm (Phytophthora infestans; read-out: Efficacy in % found, Table 6): 58% | pest or weed control at 25 ppm (Sphaerotheca fuliginea; Table 7, 25 ppm a.i.): 13% | pest or weed control at 50 ppm (Sphaerotheca fuliginea; Table 7, 50 ppm a.i.): 13% | pest or weed control at 100 ppm (Sphaerotheca fuliginea; Table 7, 100 ppm a.i.): 13% | pest or weed control at 100 ppm (Sphaerotheca fuliginea; Table 8, 100 ppm a.i.): 0% | pest or weed control at 25 ppm (Botrytis cinerea; Table 9, 25 ppm a.i.): 15% | pest or weed control at 50 ppm (Botrytis cinerea; Table 9, 50 ppm a.i.): 40% | pest or weed control at 50 ppm (Botrytis cinerea; Table 10, 50 ppm a.i.): 0% | Efficacy in % found (Pythium ultimum): 30%

From patent US20120027741A1 (priority 2009, published 2012)
